In US8809355B2, “GABAA receptor modulators” (Innovationspatent Sverige AB, priority 2008, dated 2014):

Key:
benzodiazepine receptor = experiment: Displacement of 3H-flumazenil in rat cortical tissue (receptor binding); details: for Ki: 3H-Flumazenil binding in vitro, rat cortical membranes, mean ± SD of three determinations
Description: Affinity of test substances for the benzodiazepine receptor was determined in vitro by displacement of ^3H-flumazenil in rat cortical tissue.

SMILES | melting point | Ki (benzodiazepine receptor) | affinity for the BZD receptor (in words) (benzodiazepine receptor; discussion of Table 1) | fold difference in potency among the ethylene linked compounds, thiophene over phenyl (benzodiazepine receptor; ratio of Ki values, printed as 14a over 14b) | fold higher affinity of methylene linked thiophene compared to phenyl 16a (benzodiazepine receptor; ratio of Ki values, vs 16a)
CCOC(=O)n1c(=S)[nH]c2ccc(C)cc2c1=O [Compound 3b, Ethyl 6-methyl-4-oxo-2-thioxo-1,4-dihydroquinazoline-3(2H)-carboxylate] | 164 °C | > 30000 nM | low affinity | – | –
Cc1ccc(-n2nc3c4cc(Br)ccc4[nH]c(=O)n3c2=O)cc1 [Compound 8a, 9-Bromo-2-(4-methylphenyl)-2,6-dihydro[1,2,4]triazolo[4,3-c]quinazoline-3,5-dione] | 369 °C | 0.24 ± 0.07 nM | – | – | –
O=c1[nH]c2ccc(Br)cc2c2nn(-c3ccccc3)c(=O)n12 [Compound 8b, 9-Bromo-2-phenyl-2,6-dihydro[1,2,4]triazolo[4,3-c]quinazoline-3,5-dione] | 405 °C | 0.47 ± 0.09 nM | – | – | –
O=c1[nH]c2ccc(Br)cc2c2nn(-c3ccc(Cl)cc3)c(=O)n12 [Compound 8c, 9-Bromo-2-(4-chlorophenyl)-2,6-dihydro[1,2,4]triazolo[4,3-c]quinazoline-3,5-dione] | 387 °C (dec.) | 0.6 ± 0.26 nM | – | – | –
O=c1[nH]c2ccc(Br)cc2c2nn(-c3ccccc3F)c(=O)n12 [Compound 8d, 9-Bromo-2-(2-fluorophenyl)-2,6-dihydro[1,2,4]triazolo[4,3-c]quinazoline-3,5-dione] | 347 °C (dec.) | 0.2 ± 0.07 nM | – | – | –
Cc1ccc2[nH]c(=O)n3c(=O)n(-c4ccccc4)nc3c2c1 [Compound 8e, 9-Methyl-2-phenyl-2,6-dihydro[1,2,4]triazolo[4,3-c]quinazoline-3,5-dione] | 330 °C (dec.) | 0.62 ± 0.13 nM | – | – | –
Cc1ccc(-n2nc3c4cc(C#Cc5ccccc5)ccc4[nH]c(=O)n3c2=O)cc1 [Compound 13a, 2-(4-Methylphenyl)-9-phenylethynyl-2,6-dihydro[1,2,4]triazolo[4,3-c]-quinazoline-3,5-dione] | > 300 °C (dec.) | 40 nM | – | – | –
Cc1ccc(-n2nc3c4cc(C#Cc5ccsc5)ccc4[nH]c(=O)n3c2=O)cc1 [Compound 13b, 2-(4-Methylphenyl)-9-(3-thienylethynyl)-2,6-dihydro[1,2,4]triazolo[4,3-c]-quinazoline-3,5-dione] | > 320 °C (dec.) | – | – | – | –
Cc1ccc(-n2nc3c4cc(C#Cc5ccccn5)ccc4[nH]c(=O)n3c2=O)cc1 [Compound 13c, 2-(4-Methylphenyl)-9-(pyridin-2-ylethynyl)-2,6-dihydro[1,2,4]triazolo[4,3-c]-quinazoline-3,5-dione] | 330 °C | – | – | – | –
Cc1ccc(-n2nc3c4cc(C#Cc5cccnc5)ccc4[nH]c(=O)n3c2=O)cc1 [Compound 13d, 2-(4-Methylphenyl)-9-(pyridin-3-ylethynyl)-2,6-dihydro[1,2,4]triazolo[4,3-c]-quinazoline-3,5-dione] | 339 °C | – | – | – | –
Cc1ccc(-n2nc3c4cc(C#Cc5ccncc5)ccc4[nH]c(=O)n3c2=O)cc1 [Compound 13e, 2-(4-Methylphenyl)-9-(pyridin-4-ylethynyl)-2,6-dihydro[1,2,4]triazolo[4,3-c]-quinazoline-3,5-dione] | 330 °C | – | – | – | –
Cc1ccc(-n2nc3c4cc(C#Cc5ccc(Oc6ccccc6)cc5)ccc4[nH]c(=O)n3c2=O)cc1 [Compound 13f, 2-(4-Methylphenyl)-9-[(4-phenoxyphenyl)ethynyl]-2,6-dihydro[1,2,4]triazolo[4,3-c]-quinazoline-3,5-dione] | 216 °C | – | – | – | –
Cc1ccc(-n2nc3c4cc(C#Cc5ccc(-c6ccccc6)cc5)ccc4[nH]c(=O)n3c2=O)cc1 [Compound 13g, 9-(Biphen-4-ylethynyl)-2-(4-methylphenyl)-2,6-dihydro[1,2,4]triazolo[4,3-c]-quinazoline-3,5-dione] | > 350 °C (dec.) | – | – | – | –
Cc1ccc(-n2nc3c4cc(C#Cc5cccc(O)c5)ccc4[nH]c(=O)n3c2=O)cc1 [Compound 13i, 9-(3-Hydroxyphenyl)ethynyl-2-(4-methylphenyl)-2,6-dihydro[1,2,4]triazolo[4,3-c]-quinazoline-3,5-dione] | 300 °C (dec.) | – | – | – | –
Cc1ccc(-n2nc3c4cc(CCc5ccccc5)ccc4[nH]c(=O)n3c2=O)cc1 [Compound 14a, 2-(4-Methylphenyl)-9-(2-phenylethyl)-2,6-dihydro[1,2,4]triazolo[4,3-c]-quinazoline-3,5-dione] | 303 °C | 4 ± 1.2 nM | – | 4 fold | –
Cc1ccc(-n2nc3c4cc(CCc5ccsc5)ccc4[nH]c(=O)n3c2=O)cc1 [Compound 14b, 2-(4-Methylphenyl)-9-[2-(3-thienyl)ethyl]-2,6-dihydro[1,2,4]triazolo[4,3-c]-quinazoline-3,5-dione] | 281 °C | 0.94 ± 0.27 nM | – | – | –
Cc1ccc(-n2nc3c4cc(CCc5ccccn5)ccc4[nH]c(=O)n3c2=O)cc1 [Compound 14c, 2-(4-Methylphenyl)-9-[2-(2-pyridyl)ethyl]-2,6-dihydro[1,2,4]triazolo[4,3-c]-quinazoline-3,5-dione] | > 300 °C (dec.) | 0.53 ± 0.11 nM | – | – | –
Cc1ccc(-n2nc3c4cc(CCc5cccnc5)ccc4[nH]c(=O)n3c2=O)cc1 [Compound 14d, 2-(4-Methylphenyl)-9-[2-(3-pyridyl)ethyl]-2,6-dihydro[1,2,4]triazolo[4,3-c]-quinazoline-3,5-dione] | 292 °C | 0.2 ± 0.04 nM | – | – | –
Cc1ccc(-n2nc3c4cc(CCc5ccncc5)ccc4[nH]c(=O)n3c2=O)cc1 [Compound 14e, 2-(4-Methylphenyl)-9-[2-(4-pyridyl)ethyl]-2,6-dihydro[1,2,4]triazolo[4,3-c]-quinazoline-3,5-dione] | 294 °C | 0.17 ± 0.03 nM | – | – | –
Cc1ccc(-n2nc3c4cc(CCc5ccc(Oc6ccccc6)cc5)ccc4[nH]c(=O)n3c2=O)cc1 [Compound 14f, 2-(4-Methylphenyl)-9-[2-(4-phenoxyphenyl)ethyl]-2,6-dihydro[1,2,4]triazolo[4,3-o]-quinazoline-3,5-dione] | 213 °C | 123 ± 12 nM | – | – | –
Cc1ccc(-n2nc3c4cc(CCc5ccc(-c6ccccc6)cc5)ccc4[nH]c(=O)n3c2=O)cc1 [Compound 14g] | 345 °C | 1570 ± 150 nM | – | – | –
Cc1ccc(-n2nc3c4cc(CCc5cccc(O)c5)ccc4[nH]c(=O)n3c2=O)cc1 [Compound 14i, 9-[2-(3-hydroxyphenyl)ethyl]-2-(4-Methylphenyl)-2,6-dihydro[1,2,4]triazolo[4,3-c]-quinazoline-3,5-dione] | 300 °C (dec.) | 6.2 nM | – | – | –
Cc1ccc(-n2nc3c4cc(Cc5ccccc5)ccc4[nH]c(=O)n3c2=O)cc1 [Compound 16a, 9-Benzyl-2-(4-methylphenyl)-2,6-dihydro[1,2,4]triazolo[4,3-c]quinazoline-3,5-dione] | 299 °C | ~1 nM | – | – | –
Cc1ccc(-n2nc3c4cc(Cc5cccc(F)c5)ccc4[nH]c(=O)n3c2=O)cc1 [Compound 16b, 9-(3-Fluorobenzyl)-2-(4-methylphenyl)-2,6-dihydro[1,2,4]triazolo[4,3-c]quinazoline-3,5-dione] | 324 °C | 2.1 ± 0.3 nM | – | – | –
Cc1ccc(-n2nc3c4cc(Cc5ccsc5)ccc4[nH]c(=O)n3c2=O)cc1 [Compound 16c, 2-(4-Methylphenyl)-9-(3-thienylmethyl)-2,6-dihydro[1,2,4]triazolo[4,3-c]quinazoline-3,5-dione] | 287 °C | 0.23 ± 0.18 nM | – | – | 5 fold
Cc1ccc(-n2nc3c4cc(/C=C/C(=O)OCc5ccccc5)ccc4[nH]c(=O)n3c2=O)cc1 [Compound 17, Benzyl (2E)-3-[2-(4-methylphenyl)-3,5-dioxo-2,6-dihydro[1,2,4]triazolo[4,3-c]quinazolin-9-yl]acrylate] | 242 °C | – | – | – | –
Cc1ccc(-n2nc3c4cc(CCC(=O)O)ccc4[nH]c(=O)n3c2=O)cc1 [Compound 18, 3-[2-(4-Methylphenyl)-3,5-dioxo-2,6-dihydro[1,2,4]triazolo[4,3-c]quinazolin-9-yl]propanoic acid] | 275 °C | 1.4 nM | – | – | –
